In patent US10485844B2, “Methods for treating severe atopic dermatitis by administering an IL-4R inhibitor” (Regeneron Pharmaceuticals, Inc., priority 2016, dated 2019):
Marks after values point to notes of the source that are not given here.

System: adult patients with severe AD
Test: 16-week randomized placebo-controlled trial of dupilumab + TCS in adults with severe AD not adequately controlled with or intolerant to cyclosporine A (efficacy and safety);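 further: subcutaneous dosing after a 600 mg loading dose on day 1, with standardized medium-potency TCS background from day −14, compared against matching injectable placebo arm, 1:1:1 randomization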
Conditions: for % change from baseline in SCORAD / % change in baseline in weekly average of peak daily pruritus NRS / % patients with EASI-75 / % patients with IGA 0 or 1 and reduction from baseline of ≥2 points / Change from baseline in % BSA / Change from baseline in DLQI / Change from baseline in HADS / Change from baseline in POEM / % patients with EASI-75 for patients with prior CSA use / % patients with reduction of weekly average peak daily pruritus NRS ≥4 from baseline: week 16; for % patients with EASI-75 for patients with prior CSA use: N = 69; for % patients with reduction of weekly average peak daily pruritus NRS ≥4 from baseline: N = 94
[1] = 300 mg dupilumab q2w + TCS (N = 107), 16-week treatment period
[2] = 300 mg dupilumab q2w + TCS, Week 16
[3] = expected at the end of the study period

Substance: dupilumab: fully human anti-IL-4R antibody; heavy chain SEQ ID NO: 9, light chain SEQ ID NO: 10
- DLQI score, mean change from baseline to Week 16 (±SE) (300 mg dupilumab q2w + TCS): −9.7 (0.64)***^
- DLQI score: Proportion of Patients with ≥4-point improvement at Week 16 (300 mg dupilumab q2w + TCS): 85 (79.4)*** %
- POEM score, mean change from baseline to Week 16 (±SE) (300 mg dupilumab q2w + TCS): −11.7 (0.68)***
- POEM score: Proportion of patients with ≥4-point improvement at Week 16 (300 mg dupilumab q2w + TCS): 89 (83.2)*** %
- Proportion of patients with DLQI 0 or 1 at Week 16 (300 mg dupilumab q2w + TCS): 32 (29.9)** %
- Atopic dermatitis (AE), n (%) [1]: (7.5) %
- Conjunctivitis allergic, n (%) [1]: (15.0) %
- Conjunctivitis, n (%) [1]: (11.2) %
- Headache, n (%) [1]: (9.3) %
- Nasopharyngitis, n (%) [1]: (20.6) %
- Number of patients with TEAEs, n (%) [1]: (72.0) %
- Rhinitis allergic, n (%) [1]: (6.5) %
- DLQI: Proportion of patients reporting “no impact” or “little impact”: Affected social, leisure activity [2]: (91.6)*** %
- DLQI: Proportion of patients reporting “no impact” or “little impact”: Caused any sexual difficulties [2]: (93.5)*** %
- DLQI: Proportion of patients reporting “no impact” or “little impact”: How embarrassed, self-conscious [2]: (86.9)*** %
- DLQI: Proportion of patients reporting “no impact” or “little impact”: How itchy, sore, painful, stinging [2]: (83.2)*** %
- DLQI: Proportion of patients reporting “no impact” or “little impact”: How much a problem is treatment [2]: (89.7)*** %
- DLQI: Proportion of patients reporting “no impact” or “little impact”: Influenced clothes you wear [2]: (84.1)*** %
- DLQI: Proportion of patients reporting “no impact” or “little impact”: Interfered shopping, home, yard [2]: (93.5)*** %
- DLQI: Proportion of patients reporting “no impact” or “little impact”: Made it difficult to do any sports [2]: (90.7)*** %
- DLQI: Proportion of patients reporting “no impact” or “little impact”: Prevented/problem at working or studying [2]: (91.6)*** %
- DLQI: Proportion of patients reporting “no impact” or “little impact”: Problem partner, friends, relative [2]: (95.3)*** %
- POEM: Proportion of patients reporting ‘no days’ or ‘1-2 days’: Last week days been weeping/oozing [2]: (87.9)*** %
- POEM: Proportion of patients reporting ‘no days’ or ‘1-2 days’: Last week days skin been bleeding [2]: (84.1)*** %
- POEM: Proportion of patients reporting ‘no days’ or ‘1-2 days’: Last week days skin been cracked [2]: (75.7)*** %
- POEM: Proportion of patients reporting ‘no days’ or ‘1-2 days’: Last week days skin been flaking off [2]: (65.4)*** %
- POEM: Proportion of patients reporting ‘no days’ or ‘1-2 days’: Last week days skin been itchy [2]: (45.8)*** %
- POEM: Proportion of patients reporting ‘no days’ or ‘1-2 days’: Last week days skin felt dry or rough [2]: (59.8)*** %
- POEM: Proportion of patients reporting ‘no days’ or ‘1-2 days’: Last week nights sleep been disturbed [2]: (83.2)*** %
- SCORAD VAS sleep loss, LS mean percent change from baseline to Week 16 (±SE) (300 mg dupilumab q2w + TCS, n = 98): −61.2 (34.38)* percent
- SCORAD VAS sleep loss, LS mean change from baseline to Week 16 (±SE) (300 mg dupilumab q2w + TCS, n = 106): −3.0 (0.25)***^
- Pruritus NRS: Proportion of patients with ≥3-point improvement at Week 16 (300 mg dupilumab q2w + TCS, patients with baseline peak pruritus NRS ≥3): 56/99 (56.6)*** %
- Pruritus NRS: Proportion of patients with ≥4-point improvement at Week 16 (300 mg dupilumab q2w + TCS, patients with baseline peak pruritus NRS ≥4): 43/94 (45.7)*** %
- deaths during the study (all treatment groups): No deaths
- skin infections vs placebo (combined dupilumab-treated groups): fewer skin infections
- % change in EASI score from baseline to week 16 (dupilumab 300 mg q2w + TCS): −79.8%
- Mean weekly dose of TCS use during the treatment period (dupilumab 300 mg q2w + TCS): 15.0
- % change from baseline in SCORAD (dupilumab 300 mg q2w + TCS): −58.3%
- % change in baseline in weekly average of peak daily pruritus NRS (dupilumab 300 mg q2w + TCS): −53.9%
- % patients with EASI-75 (dupilumab 300 mg q2w + TCS): 62.6%
- % patients with IGA 0 or 1 and reduction from baseline of ≥2 points (dupilumab 300 mg q2w + TCS): 40.2%
- Change from baseline in % BSA (dupilumab 300 mg q2w + TCS): −39.2 % BSA
- Change from baseline in DLQI (dupilumab 300 mg q2w + TCS): −9.6
- Change from baseline in HADS (dupilumab 300 mg q2w + TCS): −6.1
- Change from baseline in POEM (dupilumab 300 mg q2w + TCS): −11.9
- % patients with EASI-75 for patients with prior CSA use (dupilumab 300 mg q2w + TCS): 58.0%
- % patients with reduction of weekly average peak daily pruritus NRS ≥4 from baseline (dupilumab 300 mg q2w + TCS): 45.7%
- % change in EASI score from baseline to week 16 (dupilumab 300 mg qw + TCS): −78.2%
- Mean weekly dose of TCS use during the treatment period (dupilumab 300 mg qw + TCS): 17.5
- % change from baseline in SCORAD (dupilumab 300 mg qw + TCS): −62.4%
- % change in baseline in weekly average of peak daily pruritus NRS (dupilumab 300 mg qw + TCS): −51.7%
- % patients with EASI-75 (dupilumab 300 mg qw + TCS): 59.1%
- % patients with IGA 0 or 1 and reduction from baseline of ≥2 points (dupilumab 300 mg qw + TCS): 39.1%
- Change from baseline in % BSA (dupilumab 300 mg qw + TCS): −37.5 % BSA
- Change from baseline in DLQI (dupilumab 300 mg qw + TCS): −8.9
- Change from baseline in HADS (dupilumab 300 mg qw + TCS): −5.2
- Change from baseline in POEM (dupilumab 300 mg qw + TCS): −11.4
- % patients with EASI-75 for patients with prior CSA use (dupilumab 300 mg qw + TCS): 56.5%
- % patients with reduction of weekly average peak daily pruritus NRS ≥4 from baseline (dupilumab 300 mg qw + TCS): 40.4%
- Injection site reactions vs placebo (dupilumab groups, higher rate in 300 mg qw than 300 mg q2w, no severe ISRs): more common
- tolerability / safety profile (dupilumab plus concomitant TCS, 16-week treatment period): generally well tolerated
- incidence of conjunctivitis vs placebo (dupilumab-treated groups, more events in 300 mg Q2W than 300 mg QW): higher incidence
- improvement in at least one AD-associated parameter as compared to placebo [3]: significant improvement
- less TCS used than placebo [3]: up to 50%
- Serious adverse events (in each treatment group): 2 events
